Test results from the NIST ThermoML archive (doi:10.1021/je700322p).

Settings: Liquid

CCO [ethanol]
Settings	vapor or sublimation pressure [kPa]
321 K	26.41
324 K	30.53
327 K	35.19
330 K	40.44
333 K	46.34
336 K	52.96
339 K	60.35
342 K	68.6
345 K	77.77
348 K	87.96
351 K	99.24
354 K	111.7
357 K	125.44
359 K	135.37

CCOC(C)=O [ethyl acetate]
Settings	vapor or sublimation pressure [kPa]
310 K	21.72
313 K	24.78
316 K	28.18
319 K	31.95
322 K	36.12
325 K	40.73
328 K	45.8
331 K	51.36
334 K	57.46
337 K	64.13
340 K	71.4
343 K	79.32
346 K	87.93
349 K	97.26
352 K	107.36
355 K	118.27
358 K	130.03
359 K	134.15
